Consider 16 compounds from US8778881B2 (priority 2004, dated 2014).

In one test the target is T1, hV1a receptor (Homo sapiens, UniProt P37288).
T1 construct: expressed in transfected cells; host or cells: HEK-293 cells (transient transfection)
Briefly: hV1a receptor transcriptional reporter (luciferase) agonist assay in HEK-293 cells. The test is classed as cell-based. The protocol:
(§1) Agonist activity of compounds on the hV1a receptor was determined in a transcriptional reporter assay by transiently transfecting a hV1a receptor expression DNA into HEK-293 cells in concert with a reporter DNA containing intracellular calcium responsive promoter elements regulating expression of firefly luciferase. See Boss, V., Talpade, D. J., Murphy, T. J. J. Biol. Chem. 1996, May 3; 271(18), 10429-10432 for further guidance on this assay. […] To determine selectivity, compounds were tested in luciferase-based transcriptional reporter assays expressing the human oxytocin (hOT) receptor. Assays for other receptors (hV2, hV1b, rat V1a and rat V2) were also conducted.
(§2) The EC50 value given is the geometric mean expressed in nanomol/L (nM). Selectivity values are given as EC50 ratios.

Test [1] deals with T2, human oxytocin (hOT) receptor (Homo sapiens, UniProt P30559).
T2 construct: expressed in transfected cells
T2 sequence (P30559 1-389): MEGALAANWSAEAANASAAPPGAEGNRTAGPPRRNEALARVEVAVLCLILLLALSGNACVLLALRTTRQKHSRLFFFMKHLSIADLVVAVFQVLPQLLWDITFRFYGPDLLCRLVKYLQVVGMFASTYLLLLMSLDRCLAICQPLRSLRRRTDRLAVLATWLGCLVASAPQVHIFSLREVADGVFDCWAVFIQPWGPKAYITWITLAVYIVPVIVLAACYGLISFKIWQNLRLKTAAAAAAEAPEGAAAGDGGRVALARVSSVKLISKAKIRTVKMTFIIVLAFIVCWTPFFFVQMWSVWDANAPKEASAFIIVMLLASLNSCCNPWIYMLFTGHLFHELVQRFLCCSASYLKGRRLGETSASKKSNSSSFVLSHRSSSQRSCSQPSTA
The test can be described thus: luciferase-based transcriptional reporter assay expressing the human oxytocin (hOT) receptor, for selectivity. The test is classed as cell-based. The protocol: as §1, §2

[2] abbreviates: agonist efficacy at the hOT receptor compared to AVP, ratio not determined.

pEC50: −log10 of the molar value. Where two headings read alike, the source gives them in different places. Numbered stars: 1 amine (or outer) side, 2 acyl side, 3 side chain; on linkers, the order of the positions; unused ones are H or OH. Bridge positions count the residues as written; N and C are the ends. Square brackets hold non-standard residues; d marks the D form. Peptide text beside a SMILES is read from it. Orn(Me) = CN(CCC[C@H](N[*:1])C(=O)[*:2])[*:3]; Ala(2-furyl) = N[C@@H](Cc1ccco1)C(=O)O; Orn(iPr) = CC(C)NCCC[C@H](N)C(=O)O; X1 = CCNCCC[C@H](N[*:1])C(=O)[*:2]; 2Thi = N[C@@H](Cc1cccs1)C(=O)O; 3Thi = N[C@@H](Cc1ccsc1)C(=O)O; Aad = N[C@@H](CCCC(=O)O)C(=O)O; Orn = NCCC[C@H](N)C(=O)O; Dab = NCC[C@H](N)C(=O)O

T1 sequence (P37288 whole entry): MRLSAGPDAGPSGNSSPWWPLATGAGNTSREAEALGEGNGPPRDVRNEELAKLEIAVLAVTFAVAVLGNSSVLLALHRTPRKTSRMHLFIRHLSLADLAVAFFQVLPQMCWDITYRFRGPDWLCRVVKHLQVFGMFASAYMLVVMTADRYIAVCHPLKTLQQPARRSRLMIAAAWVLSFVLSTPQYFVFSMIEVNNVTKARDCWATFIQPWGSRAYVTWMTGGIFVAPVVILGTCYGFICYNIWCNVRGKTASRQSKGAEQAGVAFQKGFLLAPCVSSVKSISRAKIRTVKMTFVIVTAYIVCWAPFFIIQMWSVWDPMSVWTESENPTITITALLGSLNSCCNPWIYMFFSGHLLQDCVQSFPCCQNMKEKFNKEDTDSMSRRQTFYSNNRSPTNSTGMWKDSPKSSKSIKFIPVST

`CC[C@H](C)[C@@H]1NC(=O)[C@H](Cc2ccccc2)NC(=O)[C@@H](N)CSSC[C@@H](C(=O)N2CCC[C@H]2C(=O)N[C@@H](CCCNC(C)C)C(=O)NCC(N)=O)NC(=O)[C@H](CC(N)=O)NC(=O)[C@H](CCCC(N)=O)NC1=O` [Compound 1, [Phe^2, Hgn^4, Orn (i-Pr)^8]VT] (H-CFI[Aad](NH2)NCP[Orn(iPr)]G-NH2; disulfide 1-6; N-terminus assumed): at hV1a receptor, the pEC50 was 8.69.
Take `CCNC(=O)C[C@@H]1NC(=O)[C@H]([C@@H](C)CC)NC(=O)[C@H](Cc2ccccc2)NC(=O)[C@@H](N)CSSC[C@@H](C(=O)N2CCC[C@H]2C(=O)N[C@@H](CCN)C(=O)NCC(N)=O)NC(=O)[C@H](CC(N)=O)NC1=O` [Compound 4, [Phe^2,Asn (Et)^4, Dbu^8]VT] (H-CFID(NHEt)NCP[Dab]G-NH2; disulfide 1-6): the pEC50 on hV1a receptor (geometric mean, HEK-293 cells transiently transfected, 5 hours exposure, at least three independent experiments, read-out: EC50 hV1a receptor) is 8.63.
With `CC[C@H](C)[C@@H]1NC(=O)[C@H](Cc2ccccc2)NC(=O)[C@@H](N)CSSC[C@@H](C(=O)N2CCC[C@H]2C(=O)N[C@@H](CCN)C(=O)NCC(N)=O)NC(=O)[C@H](CC(N)=O)NC(=O)[C@H](CC(=O)NC)NC1=O` [Compound 31] (H-CFID(NHMe)NCP[Dab]G-NH2; disulfide 1-6; N-terminus and C-terminus assumed), in test [1] (setting [2]), the “selectivity hOT/hV1a (class symbol)” value is given as “+ (selective hV1a receptor agonist; EC50 hOT/hV1a ratio not determined due to very low agonist efficacy (<30% compared to AVP) at the hOT receptor)”.
The same measure, in the same setting: the value for `CC[C@H](C)[C@@H]1NC(=O)[C@H](Cc2cccs2)NC(=O)[C@@H](N)CSSC[C@@H](C(=O)N2CCC[C@H]2C(=O)N[C@@H](CCCN)C(=O)NCC(N)=O)NC(=O)[C@H](CC(N)=O)NC(=O)[C@H](CC(N)=O)NC1=O` [Compound 33] (H-C[2Thi]INNCP[Orn]G-NH2; disulfide 1-6; N-terminus and C-terminus assumed) was “+ (selective hV1a receptor agonist; EC50 hOT/hV1a ratio not determined due to very low agonist efficacy (<30% compared to AVP) at the hOT receptor)”; that for `CC[C@H](C)[C@@H]1NC(=O)[C@H](Cc2ccsc2)NC(=O)[C@@H](N)CSSC[C@@H](C(=O)N2CCC[C@H]2C(=O)N[C@@H](CCCN)C(=O)NCC(N)=O)NC(=O)[C@H](CC(N)=O)NC(=O)[C@H](CC(N)=O)NC1=O` [Compound 35] (H-C[3Thi]INNCP[Orn]G-NH2; disulfide 1-6; N-terminus and C-terminus assumed) was “+ (selective hV1a receptor agonist; EC50 hOT/hV1a ratio not determined due to very low agonist efficacy (<30% compared to AVP) at the hOT receptor)”; that for `CC[C@H](C)[C@@H]1NC(=O)[C@H](Cc2cccs2)NC(=O)[C@@H](N)CSSC[C@@H](C(=O)N2CCC[C@H]2C(=O)N[C@@H](CCN)C(=O)NCC(N)=O)NC(=O)[C@H](CC(N)=O)NC(=O)[C@H](CC(N)=O)NC1=O` [Compound 36] (H-C[2Thi]INNCP[Dab]G-NH2; disulfide 1-6; N-terminus and C-terminus assumed) was “+ (selective hV1a receptor agonist; EC50 hOT/hV1a ratio not determined due to very low agonist efficacy (<30% compared to AVP) at the hOT receptor)”.
As to `CC[C@H](C)[C@@H]1NC(=O)[C@H](Cc2ccsc2)NC(=O)[C@@H](N)CSSC[C@@H](C(=O)N2CCC[C@H]2C(=O)N[C@@H](CCN)C(=O)NCC(N)=O)NC(=O)[C@H](CC(N)=O)NC(=O)[C@H](CC(N)=O)NC1=O` [Compound 37] (H-C[3Thi]INNCP[Dab]G-NH2; disulfide 1-6; N-terminus and C-terminus assumed), the “selectivity hOT/hV1a (class symbol)” value in test [1] (setting [2]) was “+ (selective hV1a receptor agonist; EC50 hOT/hV1a ratio not determined due to very low agonist efficacy (<30% compared to AVP) at the hOT receptor)”.
Same read-out and setting: the result for `CC[C@H](C)[C@@H]1NC(=O)[C@H](Cc2ccco2)NC(=O)[C@@H](N)CSSC[C@@H](C(=O)N2CCC[C@H]2C(=O)N[C@@H](CCCN)C(=O)NCC(N)=O)NC(=O)[C@H](CC(N)=O)NC(=O)[C@H](CC(N)=O)NC1=O` [Compound 38] (H-C[Ala(2-furyl)]INNCP[Orn]G-NH2; disulfide 1-6; N-terminus and C-terminus assumed) reads “+ (selective hV1a receptor agonist; EC50 hOT/hV1a ratio not determined due to very low agonist efficacy (<30% compared to AVP) at the hOT receptor)”.
`CC[C@H](C)[C@@H]1NC(=O)[C@H](Cc2ccco2)NC(=O)[C@@H](N)CSSC[C@@H](C(=O)N2CCC[C@H]2C(=O)N[C@@H](CCCNC(C)C)C(=O)NCC(N)=O)NC(=O)[C@H](CC(N)=O)NC(=O)[C@H](CC(N)=O)NC1=O` [Compound 42] (H-C[Ala(2-furyl)]INNCP[Orn(iPr)]G-NH2; disulfide 1-6): in test [1], the “selectivity hOT/hV1a (class symbol)” value is “+ (key: +: selective hV1a receptor agonist; EC50 hOT/hV1a ratio not determined due to very low agonist efficacy (<30% compared to AVP) at the hOT receptor)”.
`CC[C@H](C)[C@@H]1NC(=O)[C@H](Cc2cccs2)NC(=O)[C@@H](N)CSSC[C@@H](C(=O)N2CCC[C@H]2C(=O)N[C@@H](CCCNC(C)C)C(=O)NCC(N)=O)NC(=O)[C@H](CC(N)=O)NC(=O)[C@H](CC(N)=O)NC1=O` [Compound 43] (H-C[2Thi]INNCP[Orn(iPr)]G-NH2; disulfide 1-6; N-terminus and C-terminus assumed): the “selectivity hOT/hV1a (class symbol)” value in test [1] (setting [2]) is “+ (selective hV1a receptor agonist; EC50 hOT/hV1a ratio not determined due to very low agonist efficacy (<30% compared to AVP) at the hOT receptor)”.
Take `CC[C@H](C)[C@@H]1NC(=O)[C@H](Cc2ccco2)NC(=O)[C@@H](N)CSSC[C@@H](C(=O)N2CCC[C@H]2C(=O)N[C@@H](CCN)C(=O)NCC(N)=O)NC(=O)[C@H](CC(N)=O)NC(=O)[C@H](CC(N)=O)NC1=O` [Compound 44] (H-C[Ala(2-furyl)]INNCP[Dab]G-NH2; disulfide 1-6; N-terminus and C-terminus assumed): in test [1] (setting [2]), the “selectivity hOT/hV1a (class symbol)” value was “+ (selective hV1a receptor agonist; EC50 hOT/hV1a ratio not determined due to very low agonist efficacy (<30% compared to AVP) at the hOT receptor)”.
Same read-out and setting: the value for `CC[C@H](C)[C@@H]1NC(=O)[C@H](Cc2ccccc2)NC(=O)[C@@H](N)CSSC[C@@H](C(=O)N2CCC[C@H]2C(=O)N[C@@H](CCCNC)C(=O)NCC(N)=O)NC(=O)[C@H](CC(N)=O)NC(=O)[C@H](CC(N)=O)NC1=O` [Compound 46] (H-CFINNCP[Orn(Me)]G-NH2; disulfide 1-6; N-terminus and C-terminus assumed) was “+ (selective hV1a receptor agonist; EC50 hOT/hV1a ratio not determined due to very low agonist efficacy (<30% compared to AVP) at the hOT receptor)”; that for `CCNCCC[C@H](NC(=O)[C@@H]1CCCN1C(=O)[C@@H]1CSSC[C@H](N)C(=O)N[C@@H](Cc2ccccc2)C(=O)N[C@@H]([C@@H](C)CC)C(=O)N[C@@H](CC(N)=O)C(=O)N[C@@H](CC(N)=O)C(=O)N1)C(=O)NCC(N)=O` [Compound 47] (H-CFINNCP[X1]G-NH2; disulfide 1-6; N-terminus and C-terminus assumed) was “+ (selective hV1a receptor agonist; EC50 hOT/hV1a ratio not determined due to very low agonist efficacy (<30% compared to AVP) at the hOT receptor)”; that for `CCNC(=O)C[C@@H]1NC(=O)[C@H]([C@@H](C)CC)NC(=O)[C@H](Cc2ccccc2)NC(=O)[C@@H](N)CSSC[C@@H](C(=O)N2CCC[C@H]2C(=O)N[C@@H](CCCN)C(=O)NCC(N)=O)NC(=O)[C@H](CC(N)=O)NC1=O` [Compound 48] (H-CFID(NHEt)NCP[Orn]G-NH2; disulfide 1-6; N-terminus and C-terminus assumed) was “+ (selective hV1a receptor agonist; EC50 hOT/hV1a ratio not determined due to very low agonist efficacy (<30% compared to AVP) at the hOT receptor)”.
Take `CC[C@H](C)[C@@H]1NC(=O)[C@H](Cc2ccccc2)NC(=O)[C@@H](N)CSSC[C@@H](C(=O)N2CCC[C@H]2C(=O)N[C@@H](CCCN)C(=O)NCC(N)=O)NC(=O)[C@H](CC(N)=O)NC(=O)[C@H](CC(=O)NC)NC1=O` [Compound 49] (H-CFID(NHMe)NCP[Orn]G-NH2; disulfide 1-6; N-terminus and C-terminus assumed): in test [1] (setting [2]), the “selectivity hOT/hV1a (class symbol)” value was “+ (selective hV1a receptor agonist; EC50 hOT/hV1a ratio not determined due to very low agonist efficacy (<30% compared to AVP) at the hOT receptor)”.
Same read-out and setting: the result for `NCCCC[C@H](NC(=O)[C@@H]1CCCN1C(=O)[C@@H]1CSSC[C@H](NC(=O)CNC(=O)CNC(=O)CN)C(=O)N[C@@H](Cc2ccc(O)cc2)C(=O)N[C@@H](Cc2ccccc2)C(=O)N[C@@H](CCC(N)=O)C(=O)N[C@@H](CC(N)=O)C(=O)N1)C(=O)NCC(N)=O` [terlipressin, reference compound] (H-GGGCYFQNCPKG-NH2; disulfide 4-9) reads “+ (selective hV1a receptor agonist; EC50 hOT/hV1a ratio not determined due to very low agonist efficacy (<30% compared to AVP) at the hOT receptor)”.

Usually pEC50 stands for the EC50 on a negative log10 scale, so that one unit is a factor of ten.
